Data taken from patent US20050009924A1 (priority 2003, published 2005).

How the values were obtained:
human hepatoma G2 cells = test: Cytotoxicity assay (XTT colorimetric), Hep G2; assay type: cell-based; conditions: Homo sapiens, HepG2; 48 h of drug exposure
rat glioma C6 cells = test: Cytotoxicity assay (XTT colorimetric), C6 cells; assay type: cell-based; conditions: Rattus norvegicus, C6; 48 h of drug exposure
[1] = system: hepatitis B virus transfected hepatoma cell lines, HepG 2.2.15 cells; test: Cytotoxicity assay, 2.2.15 cells; assay type: cell-based, human; conditions: Homo sapiens, HepG2.2.15; 48 h of drug exposure
[2] = system: transcriptional activity of hTERT; test: SEAP reporter assay of hTERT expression, PhTERT-SEAP (hTERT-BJ1); assay type: cell-based, human; conditions: PhTERT-SEAP (hTERT-BJ1)
Outline: (§1)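 H1299 or hTERT-BJ1 cells stably carrying hTERT- or CMV-promoter–SEAP constructs (G418-selected), treated with compounds for 24 h at 37 °C. Media heated 65 °C for 10 min, mixed with diethanolamine buffer and 12 mM p-nitrophenyl phosphate; SEAP activity taken as the rate of A405 increase.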

[3] = system: transcriptional activity of hTERT; test: SEAP reporter assay of hTERT expression, PhTERT-SEAP (H1299); assay type: cell-based, human; conditions: PhTERT-SEAP(hTERT-H1299)
Outline: as §1

[4] = MTT relative viability, PhTERT-SEAP (H1299) cells; conditions: human
[5] = MTT relative viability, PhTERT-SEAP (hTERT-BJ1) cells; conditions: human
[6] = hTERT-BJ1 cells stably transfected with PhTERT-SEAP reporter
[7] = hTERT-BJ1 cells, stable PhTERT-SEAP reporter clone
[8] = Homo sapiens, 2.3 μM, read-out: Relative SEAP activity (%)
[9] = Homo sapiens, 23 μM, read-out: Relative SEAP activity (%)
[10] = Homo sapiens, 238 μM, read-out: Relative SEAP activity (%)
[11] = Homo sapiens, NCI-H1299, 2.3 μM, read-out: Relative SEAP activity (%)
[12] = Homo sapiens, NCI-H1299, 23 μM, read-out: Relative SEAP activity (%)
[13] = Homo sapiens, NCI-H1299, 238 μM, read-out: Relative SEAP activity (%)
[14] = Homo sapiens, 2.1 μM, read-out: Relative SEAP activity (%)
[15] = Homo sapiens, 21 μM, read-out: Relative SEAP activity (%)
[16] = Homo sapiens, 218 μM, read-out: Relative SEAP activity (%)
[17] = Homo sapiens, NCI-H1299, 2.1 μM, read-out: Relative SEAP activity (%)
[18] = Homo sapiens, NCI-H1299, 21 μM, read-out: Relative SEAP activity (%)
[19] = Homo sapiens, NCI-H1299, 218 μM, read-out: Relative SEAP activity (%)

SMILES: O=C(CCl)Nc1ccc(NC(=O)CCl)c2c1C(=O)c1ccccc1C2=O [VI1, 1,4-Bis(chloroacetamido)-9,10-anthracenedione]
- IC50 (human hepatoma G2 cells): > 20 µM
- IC50 (rat glioma C6 cells): > 20 µM
- IC50 [1]: > 20 µM
- SEAP/vibility ([2]; 2.5 μM): 1.23
- SEAP/vibility ([2]; 25 μM): 1.53
- SEAP/vibility ([2]; 255 μM): 2.76
- activity at 2.5 µM ([2]; Homo sapiens, 2.5 μM, read-out: Relative SEAP activity (%)): 123 ± 16.8%
- activity at 25 µM ([2]; Homo sapiens, 25 μM, read-out: Relative SEAP activity (%)): 129 ± 17.7%
- activity at 255 µM ([2]; Homo sapiens, 255 μM, read-out: Relative SEAP activity (%)): 121 ± 10.9%
- SEAP/vibility ([3]; 2.5 μM): 0.98
- SEAP/vibility ([3]; 25 μM): 1.14
- SEAP/vibility ([3]; 255 μM): 4.66
- activity at 2.5 µM ([3]; Homo sapiens, NCI-H1299, 2.5 μM, read-out: Relative SEAP activity (%)): 102 ± 5.3%
- activity at 25 µM ([3]; Homo sapiens, NCI-H1299, 25 μM, read-out: Relative SEAP activity (%)): 110 ± 8.8%
- activity at 255 µM ([3]; Homo sapiens, NCI-H1299, 255 μM, read-out: Relative SEAP activity (%)): 97 ± 7.1%
- melting point: 285 to 287 °C
- viability at 48 h, 2.5 µM [4]: 104 ± 5.5%
- viability at 48 h, 25 µM [4]: 96 ± 3.8%
- viability at 48 h, 255 µM [4]: 21 ± 1.5%
- viability at 48 h, 2.5 µM [5, 6]: 101 ± 2.7%
- viability at 48 h, 25 µM [5, 6]: 84 ± 6.3%
- viability at 48 h, 255 µM [5, 7]: 44 ± 4.7%

SMILES: O=C(CCCl)Nc1ccc(NC(=O)CCCl)c2c1C(=O)c1ccccc1C2=O [VI7, 1,4-Bis(3-chloropropionamido)-9,10-anthracenedione]
- IC50 (human hepatoma G2 cells): > 20 µM
- IC50 (rat glioma C6 cells): > 20 µM
- IC50 [1]: > 20 µM
- SEAP/vibility ([2]; 2.3 μM): 0.36
- SEAP/vibility ([2]; 23 μM): 0.48
- SEAP/vibility ([2]; 238 μM): 0.23
- activity at 2.3 µM [2, 8]: 36 ± 12.1%
- activity at 23 µM [2, 9]: 40 ± 10.8%
- activity at 238 µM [2, 10]: 14 ± 11.8%
- SEAP/vibility ([3]; 2.3 μM): 0.88
- SEAP/vibility ([3]; 23 μM): 1.28
- SEAP/vibility ([3]; 238 μM): 2.30
- activity at 2.3 µM [3, 11]: 87 ± 2.3%
- activity at 23 µM [3, 12]: 87 ± 3.1%
- activity at 238 µM [3, 13]: 68 ± 5.3%
- melting point: 230 to 231 °C
- viability at 48 h, 2.3 µM [4]: 99 ± 6%
- viability at 48 h, 23 µM [4]: 68 ± 2.4%
- viability at 48 h, 238 µM [4]: 30 ± 3.8%
- viability at 48 h, 2.3 µM [5, 7]: 102 ± 4.1%
- viability at 48 h, 23 µM [5, 7]: 82 ± 8.2%
- viability at 48 h, 238 µM [5, 7]: 60 ± 2.5%

SMILES: CC(Cl)C(=O)Nc1ccc(NC(=O)C(C)Cl)c2c1C(=O)c1ccccc1C2=O (stereo not drawn) [VI9, 1,4-Bis(2-chloropropionamido)-9,10-anthracenedione]
- IC50 (human hepatoma G2 cells): > 20 µM
- IC50 (rat glioma C6 cells): > 20 µM
- IC50 [1]: > 20 µM
- SEAP/vibility ([2]; 2.3 μM): 0.97
- SEAP/vibility ([2]; 23 μM): 1.49
- SEAP/vibility ([2]; 238 μM): 1.68
- activity at 2.3 µM [2, 8]: 91 ± 10.8%
- activity at 23 µM [2, 9]: 101 ± 8.4%
- activity at 238 µM [2, 10]: 81 ± 8.5%
- SEAP/vibility ([3]; 2.3 μM): 0.96
- SEAP/vibility ([3]; 23 μM): 1.40
- SEAP/vibility ([3]; 238 μM): 7.82
- activity at 2.3 µM [3, 11]: 106 ± 5.5%
- activity at 23 µM [3, 12]: 109 ± 1%
- activity at 238 µM [3, 13]: 85 ± 5.3%
- melting point: 233 to 235 °C
- viability at 48 h, 2.3 µM [4]: 111 ± 5.5%
- viability at 48 h, 23 µM [4]: 77 ± 3.4%
- viability at 48 h, 238 µM [4]: 11 ± 1.4%
- viability at 48 h, 2.3 µM [5, 7]: 94 ± 10.4%
- viability at 48 h, 23 µM [5, 7]: 68 ± 8.2%
- viability at 48 h, 238 µM [5, 7]: 48 ± 2.3%

SMILES: O=C1c2ccccc2C(=O)c2c(NC(=O)C3CCCCC3)ccc(NC(=O)C3CCCCC3)c21 [VI17, 1,4-Bis(cyclohexaneamido)-9,10-anthracenedione]
- IC50 (human hepatoma G2 cells): > 20 µM
- IC50 (rat glioma C6 cells): > 20 µM
- IC50 [1]: > 20 µM
- SEAP/vibility ([2]; 2.1 μM): 0.64
- SEAP/vibility ([2]; 21 μM): 0.44
- SEAP/vibility ([2]; 218 μM): 0.68
- activity at 2.1 µM [2, 14]: 65 ± 16%
- activity at 21 µM [2, 15]: 42 ± 24.3%
- activity at 218 µM [2, 16]: 56 ± 16.3%
- SEAP/vibility ([3]; 2.1 μM): 1.00
- SEAP/vibility ([3]; 21 μM): 1.05
- SEAP/vibility ([3]; 218 μM): 1.38
- activity at 2.1 µM [3, 17]: 104 ± 1.8%
- activity at 21 µM [3, 18]: 100 ± 6.2%
- activity at 218 µM [3, 19]: 93 ± 2.5%
- melting point: 309 to 310 °C
- viability at 48 h, 2.1 µM [4]: 104 ± 6.4%
- viability at 48 h, 21 µM [4]: 96 ± 5.8%
- viability at 48 h, 218 µM [4]: 67 ± 1.5%
- viability at 48 h, 218 µM [5, 6]: 83 ± 4.2%
- viability at 48 h, 2.1 µM [5, 7]: 102 ± 3%
- viability at 48 h, 21 µM [5, 7]: 97 ± 2.4%

SMILES: O=C(CCC1CCCC1)Nc1ccc(NC(=O)CCC2CCCC2)c2c1C(=O)c1ccccc1C2=O [VI19, 1,4-Bis(3-cyclopentanepropionamido)-9,10-anthracenedione]
- IC50 (human hepatoma G2 cells): > 20 µM
- IC50 (rat glioma C6 cells): > 20 µM
- IC50 [1]: > 20 µM
- SEAP/vibility ([2]; 2.0 μM): 0.84
- SEAP/vibility ([2]; 20 μM): 0.87
- SEAP/vibility ([2]; 205 μM): 0.87
- activity at 2 µM ([2]; Homo sapiens, 2.0 μM, read-out: Relative SEAP activity (%)): 90 ± 9.2%
- activity at 20 µM ([2]; Homo sapiens, 20 μM, read-out: Relative SEAP activity (%)): 87 ± 5.5%
- activity at 205 µM ([2]; Homo sapiens, 205 μM, read-out: Relative SEAP activity (%)): 87 ± 8%
- SEAP/vibility ([3]; 2.0 μM): 1.06
- SEAP/vibility ([3]; 20 μM): 1.09
- SEAP/vibility ([3]; 205 μM): 1.15
- activity at 2 µM ([3]; Homo sapiens, NCI-H1299, 2.0 μM, read-out: Relative SEAP activity (%)): 111 ± 9.4%
- activity at 20 µM ([3]; Homo sapiens, NCI-H1299, 20 μM, read-out: Relative SEAP activity (%)): 116 ± 8%
- activity at 205 µM ([3]; Homo sapiens, NCI-H1299, 205 μM, read-out: Relative SEAP activity (%)): 109 ± 9.2%
- melting point: 166 to 167 °C
- viability at 48 h, 2 µM [4]: 105 ± 2.1%
- viability at 48 h, 20 µM [4]: 106 ± 4.7%
- viability at 48 h, 205 µM [4]: 95 ± 1.3%
- viability at 48 h, 205 µM [5, 6]: 100 ± 5.8%
- viability at 48 h, 2 µM [5, 7]: 107 ± 3.6%
- viability at 48 h, 20 µM [5, 7]: 101 ± 4.7%

SMILES: O=C(Nc1ccc(NC(=O)c2cccs2)c2c1C(=O)c1ccccc1C2=O)c1cccs1 [VI22, 1,4-Bis(2-thiopheneamido)-9,10-anthracenedione]
- IC50 (human hepatoma G2 cells): > 20 µM
- IC50 (rat glioma C6 cells): > 20 µM
- IC50 [1]: > 20 µM
- SEAP/vibility ([2]; 2.1 μM): 0.80
- SEAP/vibility ([2]; 21 μM): 0.93
- SEAP/vibility ([2]; 218 μM): 1.07
- activity at 2.1 µM [2, 14]: 94 ± 20.2%
- activity at 21 µM [2, 15]: 92 ± 17.4%
- activity at 218 µM [2, 16]: 90 ± 22.7%
- SEAP/vibility ([3]; 2.1 μM): 0.93
- SEAP/vibility ([3]; 21 μM): 0.98
- SEAP/vibility ([3]; 218 μM): 1.16
- activity at 2.1 µM [3, 17]: 100 ± 3.1%
- activity at 21 µM [3, 18]: 105 ± 5.9%
- activity at 218 µM [3, 19]: 97 ± 4.9%
- melting point: 321 to 322 °C
- viability at 48 h, 2.1 µM [4]: 108 ± 3.7%
- viability at 48 h, 21 µM [4]: 107 ± 8.5%
- viability at 48 h, 218 µM [4]: 84 ± 4.3%
- viability at 48 h, 218 µM [5, 6]: 84 ± 6.9%
- viability at 48 h, 2.1 µM [5, 7]: 118 ± 10.6%
- viability at 48 h, 21 µM [5, 7]: 99 ± 8.2%
